# Source: patent EP2216341A1, “Transferrin variants and conjugates” (Novozymes Biopharma UK Limited, priority 2009, dated 2010)
# Legend:
# [1] = test system: K562 erythroleukemic cells; assay: 55Fe uptake from labeled diferric transferrin in erythroleukemic K562 cells; type: cell-based, human; settings: 25 minutes at 37°C
# Experimental: Human plasma-derived apo-transferrin (Calbiochem 616419, tissue culture grade, pyrogen-free) is supplied lyophilised from 10mM phosphate buffer, pH7.4. The transferrin mutein is expressed, purified and quantified as described above.
# For iron-55 uptake from labeled diferric transferrin, K562 erythroleukemic cells, cultured in RPMI cell culture medium under standard conditions (bicarbonate-buffered, 5% (v/v) CO2, antibiotics, 10% (v/v) fetal calf serum) are washed with serum-free medium containing HEPES-buffer and 1 mg/ml of bovine serum albumin and used at a concentration of 10 million cells/ml in this medium. The samples tested are prepared as equimolar concentrations of apo-transferrin mutein. Apo-transferrin mutein is loaded with iron according to a standard procedure (Bates and Schlabach, J Biol Chem, 248, 3228-3232, 1973) using ferric nitrilotriacetate as iron source. Typically 50µl of 1 M NaClO4 is added to 450µl of the transferrin mutein stock-solution (pH is alkaline to neutral). The ^55Fe -NTA-loading-buffer is prepared by mixing 8.5µl 50mM NTA (pH 8.25), 18.9µl 0.1M Tris, 98.8µl Millipore-purified water and 7.5µl ^55FeCl3 in 0.5 N HCl (NEN products). 500µl of transferrin mutein is carefully mixed (dropwise) with the ^55Fe -NTA-loading-buffer and then 310µl of 5mM Hepes. NaOH/0.1M NaClO4 is added. The mixture is incubated at 4°C for 60 min following which it is deslated on a PD-10 column (containing Sephadex G-25) and dialysed. The PD-10 column is equilibrated with 5ml of equilibration buffer (5mM Hepes/NaOH, 0.1M NaClO4, 0.1 g BSA (Amresco)) then washed three times with 5ml of wash buffer (5mM Hepes/NaOH, 0.1M NaClO4). […]
# Increasing concentrations of human plasma transferrin or the transferrin mutein sample (0, 25, 100, 200, 400, 800, 1600 nM), labeled with ^55Fe, are mixed with 25 µl of medium. […] The lysates are neutralized with 1 M HCl after overnight lysis, mixed with Readysolv Scintillation cocktail and counted in the Packard Liquid Scintillation Counter. […]
# [2] = biological target: T1, transferrin receptor 1 (TfR1) (Homo sapiens, UniProt P02786); assay: Transferrin receptor 1 binding by Surface Plasmon Resonance (SPR, Biacore); settings: fluorescein conjugated sample
# T1 construct: purchased AbD Serotec 9110-300
# T1 sequence (P02786 whole entry): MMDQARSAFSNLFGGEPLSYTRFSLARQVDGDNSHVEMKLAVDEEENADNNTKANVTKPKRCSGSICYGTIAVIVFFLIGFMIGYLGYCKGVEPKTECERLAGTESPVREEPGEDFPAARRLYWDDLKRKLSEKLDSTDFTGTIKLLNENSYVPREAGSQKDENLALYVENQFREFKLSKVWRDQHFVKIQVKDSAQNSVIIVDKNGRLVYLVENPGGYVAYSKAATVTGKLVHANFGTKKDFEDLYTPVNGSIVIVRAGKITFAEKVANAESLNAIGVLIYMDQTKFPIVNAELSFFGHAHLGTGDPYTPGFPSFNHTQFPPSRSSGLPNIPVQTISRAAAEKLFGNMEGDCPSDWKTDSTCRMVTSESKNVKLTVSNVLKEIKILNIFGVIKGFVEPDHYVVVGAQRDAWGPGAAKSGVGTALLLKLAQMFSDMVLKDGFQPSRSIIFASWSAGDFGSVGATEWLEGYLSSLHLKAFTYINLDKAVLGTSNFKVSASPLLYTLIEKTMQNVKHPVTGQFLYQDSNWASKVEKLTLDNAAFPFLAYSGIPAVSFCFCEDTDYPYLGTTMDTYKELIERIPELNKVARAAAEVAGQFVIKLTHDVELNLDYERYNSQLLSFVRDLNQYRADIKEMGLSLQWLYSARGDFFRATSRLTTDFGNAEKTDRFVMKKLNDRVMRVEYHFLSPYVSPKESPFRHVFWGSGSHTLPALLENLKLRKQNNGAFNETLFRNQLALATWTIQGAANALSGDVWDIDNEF
# Text: The receptor binding capability of the recombinant transferrin variants can be determined by Surface Plasmon Resonance (SPR) analysis. The binding activity of a transferrin sample to a transferrin receptor can be measured using surface plasmon resonance (SPR) a non-invasive optical technique in which the SPR response is a measure of change in mass concentration at the detector surface as molecules bind or dissociate. A sample is sent onto the surface of the sensor chip via a micro flow system at a constant flow rate. In this analysis, if the transferrin sample is able to bind to the Transferrin Receptor the mass on the surface sensor chip is increased due to binding between Transferrin Receptor and Transferrin molecules creating a surface plasmon wave, and a shift of the SPR signal proportional to the binding quantity can be detected as a change in the resonance unit (RU). […]
# The binding capacity of human serum transferrin to human trabnsferrin receptor 1 may be measured by SPR. […]
# The receptor binding capability of the recombinant transferrin variants was assessed by Surface Plasmon Resonance (SPR) analysis. The binding activity of a transferrin sample to transferrin receptor can be measured using surface plasmon resonance (SPR) a non-invasive optical technique in which the SPR response is a measure of change in mass concentration at the detector surface as molecules bind or dissociate. […]
substance,measurement,setting,value
"Fluorescein conjugated thio-transferrin (S415C, T613A): thiotransferrin (S415C, T613A) conjugated with fluorescein",Specific iron ptake Bmax,"[1]; 55Fe-labeled sample 0-1600 nM, specific uptake (unspecific binding with hundredfold excess unlabeled diferric transferrin accounted for)",3246±217 fmol^55Fe/10^6 cells 25min
same,Total Iron Uptake Bmax,"[1]; 55Fe-labeled sample 0-1600 nM, total uptake",4165±216 fmol^55Fe/10^6 cells x 25min
same,Kd,"[1]; specific uptake, read-out: Specific iron ptake Kd x",189 ± 47 nM
same,ability to bind to transferrin receptor 1 (measured by SPR),[2],able to bind to transferrin receptor 1 by SPR analysis in a manner equivalent to the unconjugated sample
